{"source": "patent US20220395496A1", "about": "(Hoffmann-La Roche Inc., priority 2019, published 2022)", "data": [{"biological_target": "T1, human TLR9 (Homo sapiens, UniProt Q9NR96)", "T1 sequence (Q9NR96 26-1032)": "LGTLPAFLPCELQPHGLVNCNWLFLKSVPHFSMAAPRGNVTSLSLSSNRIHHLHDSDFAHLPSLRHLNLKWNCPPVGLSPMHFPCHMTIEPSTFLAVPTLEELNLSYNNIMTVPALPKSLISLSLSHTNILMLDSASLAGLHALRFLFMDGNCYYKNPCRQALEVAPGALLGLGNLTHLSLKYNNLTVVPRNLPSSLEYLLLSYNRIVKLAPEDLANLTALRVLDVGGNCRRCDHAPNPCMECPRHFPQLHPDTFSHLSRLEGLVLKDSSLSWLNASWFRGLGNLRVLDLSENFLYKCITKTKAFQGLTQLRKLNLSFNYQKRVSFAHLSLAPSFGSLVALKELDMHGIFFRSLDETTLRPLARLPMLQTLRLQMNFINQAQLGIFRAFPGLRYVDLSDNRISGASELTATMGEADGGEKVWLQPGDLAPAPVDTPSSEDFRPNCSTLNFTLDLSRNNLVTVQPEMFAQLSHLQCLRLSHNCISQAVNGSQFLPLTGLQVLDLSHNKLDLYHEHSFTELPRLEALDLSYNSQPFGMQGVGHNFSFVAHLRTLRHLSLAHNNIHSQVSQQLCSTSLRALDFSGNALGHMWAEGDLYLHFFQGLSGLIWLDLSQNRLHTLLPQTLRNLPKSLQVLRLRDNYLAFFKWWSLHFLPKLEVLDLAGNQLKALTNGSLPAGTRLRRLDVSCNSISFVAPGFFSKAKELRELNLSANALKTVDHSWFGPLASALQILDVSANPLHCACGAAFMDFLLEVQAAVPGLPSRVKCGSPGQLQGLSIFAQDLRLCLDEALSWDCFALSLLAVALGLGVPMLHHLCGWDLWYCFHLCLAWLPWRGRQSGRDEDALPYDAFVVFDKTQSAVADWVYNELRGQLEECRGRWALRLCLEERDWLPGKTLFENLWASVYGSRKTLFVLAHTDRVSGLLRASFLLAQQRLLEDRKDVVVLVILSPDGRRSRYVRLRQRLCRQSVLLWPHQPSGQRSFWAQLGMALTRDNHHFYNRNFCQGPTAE", "experiment": "HEK293-Blue-hTLR-9 cells assay (SEAP reporter, ODN2006 stimulation)", "assay_type": "cell-based", "conditions": "HEK293-Blue-hTLR9 cells, ODN2006, 20 hrs", "method": "The following tests were carried out in order to determine the activity of the compounds of this invention in HEK293-Blue-hTLR-7/8/9 cells assay.\nHEK293-Blue-hTLR-9 Cells Assay:\nA stable HEK293-Blue-hTLR-9 cell line was purchased from InvivoGen (Cat. #: hkb-htlr9, San Diego, Calif., USA). These cells were originally designed for studying the stimulation of human TLR9 by monitoring the activation of NF-κB. A SEAP (secreted embryonic alkaline phosphatase) reporter gene was placed under the control of the IFN-β minimal promoter fused to five NF-κB and AP-1-binding sites. The SEAP was induced by activating NF-κB and AP-1 via stimulating HEK-Blue hTLR9 cells with TLR9 ligands. Therefore the reporter expression was declined by TLR9 antagonist under the stimulation of a ligand, such as ODN2006 (Cat. #: tlr1-2006-1, Invivogen, San Diego, Calif., USA), for incubation of 20 hrs. The cell culture supernatant SEAP reporter activity was determined using QUANTI-Blue™ kit (Cat. #: rep-qb1, Invivogen, San Diego, Calif., USA) at a wavelength of 640 nm, a detection medium that turns purple or blue in the presence of alkaline phosphatase.\nHEK293-Blue-hTLR9 cells were incubated at a density of 250,000˜450,000 cells/mL in a volume of 170 μL in a 96-well plate in Dulbecco's Modified Eagle's medium (DMEM) containing 4.5 g/L glucose, 50 U/mL penicillin, […], 2 mM L-glutamine, 10% (v/v) heat-inactivated fetal bovine serum with addition of 20 μL test compound in a serial dilution in the presence of final DMSO at 1% and 10 μL of 20 uM ODN2006 in above DMEM, perform incubation under 37° C. in a CO2 incubator for 20 hrs. Then 20 μL of the supernatant from each well was incubated with 180 μL Quanti-blue substrate solution at 37° C. for 2 hrs and the absorbance was read at 620˜655 nm using a spectrophotometer. The signalling pathway that TLR9 activation leads to downstream NF-κB activation has been widely accepted, and therefore similar reporter assay was modified for evaluating TLR9 antagonist.", "units": {"IC50": "nM"}, "values": [{"compound": "C[C@H]1C[C@@H](N2CCc3cc(N4CCNCC4)ccc3C2)CN(c2ccc(C#N)c3ncccc23)C1", "note": "(relative stereo) [Example 24, 5-[cis-3-methyl-5-(6-piperazin-1-yl-3,4-dihydro-1H-isoquinolin-2-yl)-1-piperidyl]quinoline-8-carbonitrile]", "IC50": 70}, {"compound": "C[C@H]1C[C@@H](NCc2ccc(N3CCNCC3)cc2)CN(c2ccc(C#N)c3ncccc23)C1", "note": "[Example 1, 5-[(3S,5R)-3-methyl-5-[(4-piperazin-1-ylphenyl)methylamino]1-piperidyl]quinoline-8-carbonitrile]", "IC50": 55}, {"compound": "C[C@H]1C[C@@H](NCc2ccc(C3CCNCC3)cc2)CN(c2ccc(C#N)c3ncccc23)C1", "note": "[Example 2, 5-[(3S,5R)-3-methyl-5-[[4-(4-piperidyl)phenyl]methylamino]-1-piperidyl]quinoline-8-carbonitrile]", "IC50": 75}, {"compound": "C[C@H]1C[C@@H](NCc2ccc(N3CCNCC3)cc2)CN(c2ccc(C#N)c3nccnc23)C1", "note": "[Example 3, 8-[(3S,5R)-3-methyl-5-[(4-piperazin-1-ylphenyl)methylamino]-1-piperidyl]quinoxaline-5-carbonitrile]", "IC50": 77}, {"compound": "C[C@H]1C[C@@H](NCc2ccc(N3CCNCC3)cc2F)CN(c2ccc(C#N)c3ncccc23)C1", "note": "[Example 4, 5-[(3R,58)-3-[(2-fluoro-4-piperazin-1-yl-phenyl)methylamino]-5-methyl-1-piperidyl]quinoline-8-carbonitrile]", "IC50": 94}, {"compound": "C[C@H]1C[C@@H](NCc2ccc(N3CCNCC3)cn2)CN(c2ccc(C#N)c3ncccc23)C1", "note": "[Example 5, 5-[(3S,5R)-3-methyl-5-[(5-piperazin-1-yl-2-pyridyl)methylamino]-1-piperidyl]quinoline-8-carbonitrile]", "IC50": 68}, {"compound": "C[C@H]1C[C@@H](NCc2cccc(N3CCN(C)CC3)c2)CN(c2ccc(C#N)c3ncccc23)C1", "note": "[Example 6, 5-[(3S,5R)-3-methyl-5-[[3-(4-methylpiperazin-1-yl)phenyl]methylamino]-1-piperidyl]quinoline-8-carbonitrile]", "IC50": 70}, {"compound": "C[C@H]1C[C@@H](NCc2ccc(N3CCN(C)CC3)cc2)CN(c2ccc(C#N)c3ncccc23)C1", "note": "[Example 7, 5-[(3S,5R)-3-methyl-5-[[4-(4-methylpiperazin-1-yl)phenyl]methylamino]-1-piperidyl]quinoline-8-carbonitrile]", "IC50": 69}, {"compound": "C[C@H]1C[C@@H](NCc2cccc(N3CCNCC3)c2)CN(c2ccc(C#N)c3ncccc23)C1", "note": "[Example 8, 5-[(3S,5R)-3-methyl-5-[(3-piperazin-1-ylphenyl)methylamino]-1-piperidyl]quinoline-8-carbonitrile]", "IC50": 88}, {"compound": "C[C@H]1C[C@@H](N(C)Cc2ccc(N3CCNCC3)cc2)CN(c2ccc(C#N)c3ncccc23)C1", "note": "[Example 9, 5-[(3S,5R)-3-methyl-5-[methyl-[(4-piperazin-1-ylphenyl)methyl]amino]-1-piperidyl]quinoline-8-carbonitrile]", "IC50": 95}, {"compound": "C[C@H]1C[C@@H](NCc2ccc(N3CCNCC3)nc2)CN(c2ccc(C#N)c3ncccc23)C1", "note": "[Example 10]", "IC50": 68}, {"compound": "C[C@H]1C[C@@H](NCc2ccc3c(c2)CCNC3)CN(c2ccc(C#N)c3ncccc23)C1", "note": "[Example 11, 5-[(3S,5R)-3-methyl-5-(1,2,3,4-tetrahydroisoquinolin-6-ylmethylamino)-1-piperidyl]quinoline-8-carbonitrile]", "IC50": 82}, {"compound": "C[C@H]1C[C@@H](N2Cc3ccc(N4CCNCC4)cc3C2)CN(c2ccc(C#N)c3ncccc23)C1", "note": "[Example 12, 5-[(3S,5R)-3-methyl-5-(5-piperazin-1-ylisoindolin-2-yl)-1-piperidyl]quinoline-8-carbonitrile]", "IC50": 73}, {"compound": "C[C@H]1C[C@@H](NCc2ccc(N3CCC(N)C3)cc2)CN(c2ccc(C#N)c3ncccc23)C1", "note": "(stereo partly drawn) [Example 13, 5-[(3R,5S)-3-[[4-(3-aminopyrrolidin-1-yl)phenyl]methylamino]-5-methyl-1-piperidyl]quinoline-8-carbonitrile]", "IC50": 163}]}]}
